According to ChEMBL document CHEMBL4342414, “Activity of 2,6,9-trisubstituted purines as potent PDGFRα kinase inhibitors with antileukaemic activity” (Eur J Med Chem, 2019):
Active and inactive are the calls of the source. The rule behind the calls is not given here.

Experiments:
[1] = test system: EOL1; assay: Induction of apoptosis in human FIP1L1-PDGFRA positive EOL-1 cells assessed as increase in cell accumulation at subG1 phase at >=10 nM after 24 hrs by propidium iodide staining based flow cytometry relative to control; assay type: functional
[2] = test system: HCC827; assay: Cytotoxicity against human HCC827 cells assessed as growth inhibition after 72 hrs by resazurin dye-based fluorescence analysis; assay type: functional; settings: HCC827, 72 h
[3] = test system: EOL1; assay: Induction of cell cycle arrest at G1 phase in human FIP1L1-PDGFRA positive EOL-1 cells at 10 nM after 24 hrs by propidium iodide staining based flow cytometry; assay type: functional
[4] = Cytotoxicity against human BJ cells assessed as growth inhibition after 72 hrs by resazurin dye-based fluorescence analysis; assay type: cell-based
[5] = test system: K562; assay: Cytotoxicity against human K562 cells assessed as growth inhibition after 72 hrs by resazurin dye-based fluorescence analysis; assay type: functional; settings: K562, 72 h
[6] = Cytotoxicity against human CEM cells assessed as growth inhibition after 72 hrs by resazurin dye-based fluorescence analysis; assay type: cell-based; settings: CEM (CCRF-CEM) cells
[7] = test system: EOL1; assay: Cytotoxicity against FIP1L1-PDGFRA positive human EOL-1 cells assessed as growth inhibition after 72 hrs by resazurin dye-based fluorescence analysis; assay type: functional; settings: EOL1, 72 h

N[C@H]1CC[C@H](Nc2nc(Nc3ccc(CN4CCOCC4)cc3)c3ncn(C4CCCC4)c3n2)CC1
Activity [1]: Active
GI50 [2]: 1010 nM
Activity [3]: Active
GI50 at 72 h [4]: 12300 nM
GI50 [5]: 1120 nM
GI50 at 72 h [6]: 820 nM
GI50 [7]: 7 nM
